From article PMC3842960, “Natural Stilbenoids Isolated from Grapevine Exhibiting Inhibitory Effects against HIV-1 Integrase and Eukaryote MOS1 Transposase In Vitro Activities” (PLoS ONE, 2013)

What was measured:
[1] = system: VSV-G pseudotyped lentiviruses; assay type: cell-based; conditions: 10 µM
HIV-1 IN [2] = molecular target: T1, HIV-1 IN (Human immunodeficiency virus type 1 group M subtype B, UniProt P04585); test: HIV-1 IN in vitro concerted integration assay (processed or unprocessed donor DNA); conditions: for differential effect between reactions: strand transfer / processed donor versus 3′processing / unprocessed donor: comparison of concerted integration and 3′processing results; for inhibitory efficiency compared with raltegravir: concerted integration; for inhibitory efficiency compared with raltegravir / inhibition of concerted integration from processed and unprocessed donor: increasing concentrations
[3] = system: VSV-G pseudotyped lentiviruses; assay type: cell-based
MOS1 = molecular target: T2, MOS1 (Drosophila mauritiana, UniProt Q7JQ07); test: MOS1 in vitro activities, overall statements of the discussion; assay type: biochemical, D. mauritiana; conditions: in vitro assays of MOS1 activities; discussion
T2 construct: involving the full-length Mos1 transposase (MOS1) was recently solved; made in house
Procedure: (§1) In vitro transposition reactions were performed using pBC-3T3 as both the donor DNA and the target, as previously described. Briefly, the basic transposition reaction mixtures contained 10 mM Tris-HCl (pH 9), 50 mM NaCl, 20 mM MgCl2, 0.5 mM EDTA, 5% glycerol, 5 ng/ml BSA, 600 ng pBC-3T3, and 80 nM purified MBP-MOS1 (added last) in a volume of 20 µl. Inhibitors (25 or 10 µM, as specified) or DMSO (2%) were added to the reaction mixtures before the transposase. The reactions were allowed to proceed for 30 min at 30°C. After phenol-chloroform extraction and ethanol precipitation, 10% of the reaction mixture was transformed in electro-competent JM109 E. coli (2 mm cuvette, 1.5 kV in a MicroPulser™BioRad). Appropriate dilutions of each reaction mixture were plated on LB-tetracycline (12.5 µg/ml) agar and LB-chloramphenicol (80 µg/ml) agar to score the transposition rate. The transposition rate was the number of Tet^R colonies divided by the number of Chloram^R plus Tet^R colonies. Each condition was done at least three times in independent experiments.
(§2) Basic excision reaction mixtures contained 10 mM Tris-HCl (pH 9), 50 mM NaCl, 20 mM MgCl2, 0.5 mM EDTA, 0.5 mM DTT, 100 ng BSA, 600 ng of super-coiled pBC-3T3, and 80 nM MBP-MOS1 (added last) in a volume of 20 µl. Molecules (25 or 10 µM, as specified) or DMSO (2%) were added to the reaction mixtures before the transposase. The reactions were allowed to proceed at 30°C for 30 min before 2 µl of stop solution (loading buffer) were added. The reaction mixtures were then incubated at 65°C for 10 min. Each reaction was analysed by overnight electrophoresis at 2.7 V/cm on a TAE-buffered 1% agarose gel with ethidium bromide (0.3 mg/ml). After electrophoresis, the gel was photographed on a transilluminator. ImageGauge 4.22 software (Fujifilm) was used to quantify the bands. Each condition was tested at least twice.
These assays were performed using pre-cleaved 3′ITRs (PC-ITR), i.e. ITRs in the configuration expected after excision. Double-strand ITRs were obtained by annealing equimolar amounts of 70-NTS-PN (5′[…]3′) and 70-TS-PC (5′[…]3′) single-strand oligonucleotides. Prior to annealing, the transferred strand (70-TS-PC) was 5′-end labelled using T4 polynucleotide kinase (Promega) and γ-^32P-ATP following the manufacturer's instructions. Oligonucleotides were provided by Eurofins MWG Biotech (Germany) or Eurogentec (Belgium). Reaction mixtures containing 10 mM Tris-HCl (pH 9), 50 mM NaCl, 1 mM DTT, 5% glycerol, 100 ng BSA, 100 nM of labelled PC-ITR and 100 nM MBP-MOS1 in a final volume of 20 µl were incubated at 30°C for 30 min. The pBC plasmid (which contained the cat gene, a hot-spot for Mos1 insertion) was then added to 30 ng/µL along with 5 mM MgCl2. Molecules (25 or 10 µM, as specified) or DMSO (2%) were added to the reaction mixtures along with the target DNA to estimate their effect on integration. Reactions were carried out for 3 hours at 30°C. 0.1 mg/ml proteinase K and 0.1% SDS were added to stop the reaction. DNA products were purified by phenol-chloroform extraction and ethanol precipitated using standard techniques. DNA products were resuspended in DNA loading buffer, then separated onto a 1% agarose gel in 1X TAE (Tris Acetate EDTA) buffer. The gel was dried onto a nitrocellulose membrane (Hybond N+, GE Healthcare), scanned using a Storm, and analysed with ImageQuant software. Signals were quantified using ImageQuant software. Efficiency of integration was calculated as the intensity of the integration signal divided by the intensity of free target signal plus integration signal. Each condition was tested at least twice.
All molecules were also tested in in vitro assays reproducing integration and excision reactions catalysed by MOS1. […] In contrast, E-resveratrol and E-ε-viniferin glucoside, which act more specifically on HIV-1 3′processing reaction, and E-piceid and E-pterostilbene, which is more efficient on the integration reaction, were not active on MOS1.

Mos1 transposase (MOS1) [4] = molecular target: T3, Mos1 transposase (MOS1) (Drosophila mauritiana, UniProt Q7JQ07); test: MOS1 in vitro excision assay; assay type: biochemical, D. mauritiana
T3 construct: involving the full-length Mos1 transposase (MOS1) was recently solved; made in house
Procedure: as §2
The ability of the selected molecules to inhibit excision was tested in vitro using the pBC-3T3 plasmid as the transposon donor. MOS1 triggers the excision of the pseudo-Mos1 from the plasmid producing two linear DNA fragments, the transposon and the plasmid backbone, together with intermediate products (open circle plasmids which contained single strand nicks and linear plasmids which contained a double strand nick at one ITR). After excision, the transposon could be reintegrated, making it difficult to detect in electrophoresis. The activity of the molecules was measured by quantifying the plasmid backbone, the end product of the reaction. The assays were performed with final concentrations of 25 and 10 µM molecules. Controls correspond to assays performed without molecule but with DMSO. […] Reactions were performed at least twice for each selected molecules (leachianol G, leachianol F, quadrangularin A, hopeaphenol, vitisin B and pallidol) and the excision activity is reported in figure 7B . […] The six selected molecules were then tested for the integration step of Mos1 transposition.

HIV-1 IN [5] = molecular target: T1, HIV-1 IN; test: HIV-1 IN 3′processing assay; assay type: biochemical; conditions: 600 nM IN; increasing concentrations
Mos1 transposase (MOS1) [6] = molecular target: T3, Mos1 transposase (MOS1); test: MOS1 in vitro transposition assay (genetic hop experiment); assay type: biochemical, D. mauritiana
Procedure: The wild type Mos1 transposase (MOS1: 345 amino acids) was produced and purified as a fusion protein linked to the maltose-binding protein by using the pMal-c2 system (New England Biolabs) and following the manufacturer's instructions.
as §1
To identify the natural stilbenes active on MOS1, the 17 molecules were tested using an in vitro genetic “hop” experiment, which is the most sensitive test available as yet. Purified MOS1 was incubated with the pBC-3T3 plasmid, which was used both as the transposon donor and the target plasmid. This plasmid contains the pBR322 tetracycline resistance gene (without promoter) framed by two Mos1 ITRs. This reconstitutes a pseudo-Mos1 element named 3T3. We took advantage of the fact that the cat gene (present in the pBC backbone) is a hotspot for Mos1 integration. […] Transposition events were recovered by bacterial transformation with selection for tetracycline resistance, as a gain-of-function landmark for transposition. […] Controls correspond to assays performed without molecule but with DMSO, which is routinely used as the solvent. […] To confirm the efficiency of the six molecules, they were similarly assayed at 10 µM ( figure 6B ). Since they appeared to be still active at 10 µM, they were further characterized in order to identify the targeted step of the transposition cycle.

topoisomerase II = system: topoisomerase II; design: method as in PMID 16508191; conditions: cited from earlier work

T3 sequence (Q7JQ07 whole entry): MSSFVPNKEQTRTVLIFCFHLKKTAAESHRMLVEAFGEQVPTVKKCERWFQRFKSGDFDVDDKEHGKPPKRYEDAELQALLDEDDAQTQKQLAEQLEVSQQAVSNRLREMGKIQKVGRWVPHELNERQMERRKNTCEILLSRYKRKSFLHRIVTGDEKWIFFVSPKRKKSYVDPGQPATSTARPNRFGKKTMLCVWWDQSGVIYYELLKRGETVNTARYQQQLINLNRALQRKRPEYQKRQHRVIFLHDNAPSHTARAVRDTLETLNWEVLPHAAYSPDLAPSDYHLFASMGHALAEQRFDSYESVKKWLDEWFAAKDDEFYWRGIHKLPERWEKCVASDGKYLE
T2 sequence (Q7JQ07 whole entry): as above

Compound	1LTR circles amount [1]	2LTR circles DNA [1]	integrated DNA amount [1]	total viral DNA amount [1]	differential effect between reactions: strand transfer / processed donor versus 3′processing / unprocessed donor (HIV-1 IN [2])	inhibitory efficiency compared with raltegravir (HIV-1 IN [2])	inhibition of concerted integration from processed and unprocessed donor (HIV-1 IN [2])	integration inhibition evaluated by GFP fluorescence [3]	activity on MOS1 (MOS1)	inhibition at 25 µM (Mos1 transposase (MOS1) [4]; 25 µM, DMSO control as reference, read-out: inhibition of in vitro excision reaction) [%]	IC50 (Mos1 transposase (MOS1) [4]; concentration range, sigmoid dose-response fit) [µM]	inhibitory effect on 3′processing (HIV-1 IN [5])	activity against MOS1 in transposition assay (Mos1 transposase (MOS1) [6]; 10 µM)	inhibition of the whole MOS1 transposition activity (Mos1 transposase (MOS1) [6]; 25 µM, DMSO control as reference)	topoisomerase II inhibition (topoisomerase II)	inhibition of concerted integration (HIV-1 IN [2]; 50 µM, both activities (processed and unprocessed donor))
COc1cc(/C=C/c2ccc(O)cc2)cc(OC)c1 [E-pterostilbene]	no decrease	non significant increase	slight but reproducible decrease	No significant change	more active on strand transfer reaction than	inhibitory efficiencies close to raltegravir	inhibited both activities	found to induce an integration inhibition	not active	–	–	–	–	–	–	–
Oc1ccc(C(O)C2c3cc(O)cc(O)c3[C@H](c3ccc(O)cc3)[C@H]2c2cc(O)cc(O)c2)cc1 (some centres unmarked) [leachianol F]	–	–	–	–	active on both reactions	inhibitory efficiencies close to raltegravir	inhibited both activities	–	also active against MOS1 activities	> 50	30	showed an inhibitory effect	still active	over 50%	potent topoisomerase II inhibitors	30–60%
